Measured values published in patent US9993515B2 (DSM IP ASSETS B.V., priority 2006, dated 2018).
Where two headings read alike, the source gives them in different places. Residues, ends and D or L forms follow the SMILES beside them.

Experiments:
[1] = system: healthy volunteers; assay: Profile of Mood States (POMS) after consumption of tryptophan sources (Example 6); format: in vivo, human; details: for mood changes after the intake (POMS total mood scores): over time after intake
[2] = both, human, in vivo
Procedure: The amino acid profiles in plasma were analyzed as described in Example 6 by HPLC according to van Eijk et al (J. Chromatogr. 1993: 620: 143-148).
The aim of the present study was to investigate in healthy volunteers plasma Trp/LNAA profiles and mood after the consumption of different tryptophan containing preparations.
Eighteen healthy students (9 males and 9 females: age between 18-30 years) participated in the study. Exclusion criteria for participation were chronic and current illness, history of psychiatric or medical illness, use of medication or drugs, alcohol consumption (>2 units/day), metabolic-, hormonal- or intestinal diseases and irregular diets or deviant eating habits (assessed by health and life-style questionnaires). Subjects participating in the experiment were in the normal range for the Body-Mass Index (BMI in kg/m^2 between 20-25) and female subjects are matched for contraception. Women participated during their mid-late follicular phase (day 4-10), while women using contraception participated when they actually used the contraception pill. […] All subjects participating in the experiment signed an Informed Consent Form. This study was conducted according to the EC principles of Good Clinical Practice (GCP) adopted by the 52nd WMA General Assembly, Edinburgh, Scotland, October 2000.
Subjects were instructed to fast overnight; only water or tea without sugar was permitted. During five experimental morning sessions, subjects visited the laboratory to monitor plasma Trp/LNAA concentrations and mood following the intake of a drink containing different Trp or LNAA concentrations. The order of presentation of the various drinks was counterbalanced and the four experimental days were separated by a one-week period. On each experimental morning, a 312 ml drink was provided containing different tryptophan (Trp) or LNAA concentrations (Table 1). All drinks contained 0.10 g sweetener (acesulfame) and were filled up with plain water in order to reach 312 mL. A research assistant blind to the dietary conditions conducted the administration of the different drinks.
Blood samples were collected in duplicate before and 15, 30, 60, 90, 120, 180 and 210 minutes after ingestion in 5 ml vacutainer tubes containing sodium heparine and were then centrifuged at 5000 rpm for 5 min at 4° C. The resulting supernatants were mixed with sulfasalicyl acid (4 mg/100 microliter) and directly stored at −80° C. until analysis. Plasma amino acid analysis was conducted with HPLC, making use of a 2-3 μm Bischof Spherisorb ODS II column as described by van Eijk et al (J. Chromatogr. 1993: 620: 143-148). The plasma Trp/LNAA ratios were calculated by dividing the plasma molar tryptophan concentration by the sum of the plasma molar concentrations of the large neutral amino acids valine, isoleucine, leucine, tyrosine and phenylalanine. Statistical analysis took place by means of repeated measures multivariate and univariate analyses of variance (MANOVA and ANOVA) using the General Linear Model (GLM: SPSS 12.0 for Windows). All statistics were evaluated at a significance level of P=0.05.

Row | Molecule | mood changes after the intake (POMS total mood scores) [1] | plasma Trp/LNAA ratio ([2]; 0 min) | plasma Trp/LNAA ratio ([2]; 30 min) | plasma Trp/LNAA ratio ([2]; 60 min) | plasma Trp/LNAA ratio ([2]; 90 min) | plasma Trp/LNAA ratio ([2]; 120 min) | plasma Trp/LNAA ratio ([2]; 180 min) | plasma Trp/LNAA ratio ([2]; 210 min) | mood (POMS total mood scores) ([1]; 60 min after the intake)
1 | ALAC: intact alpha-lactalbumin obtained as Biopure (>90% alpha-lactalbumin) from Davisco Foods International | no mood changes | – | – | – | – | – | – | – | –
2 | N[C@@H](Cc1c[nH]c2ccccc12)C(=O)O [TRP, L-tryptophan] | – | 0.11 | 0.12 | 0.29 | 0.31 | 0.32 | 0.24 | 0.20 | improvements of mood
3 | N[C@@H](CO)C(=O)N[C@@H](Cc1c[nH]c2ccccc12)C(=O)O [SYN, Ser-Trp] (H-Ser-Trp-OH) | not significant | – | – | – | – | – | – | – | –
